Reference: patent EP3577173B1, “COMPOSITIONS CONTAINING FATTY ACID ESTERS OF VEGETABLE ORIGIN AS SOLVENTS” (Benessere, Vincenzo, priority 2017, dated 2018)

Tests used:
[1] = Dynamic light scattering of 5% by weight resin solution (solvent power); type: physicochemical; conditions: DLS
From the text: A first assessment of the higher solvent power of pelargonic acid esters with respect to the classical solvents can be performed by means of the analysis of the data obtained with the dynamic light scattering technique (SMD 6000 Laser Quantum apparatus,50 mW source of light beam at 532.5 nm) carried out on the solution at 5% by weight of modified phenolic (Table 3) and Maleic (Table 4)Resin, solubilized with traditional mineral solvents (base mineral oilD100), traditional vegetal oil (RADIA 7129) and the solvents of the present invention. The DLS technique (Dynamic Light Scattering) allows to monitor the intensity depending on time of the light scattered by an object into a solution. The speed of fluctuation of the light intensity depends on the speed with which the element capable of generating such scattering moves into a solution; the latter is described by the diffusion coefficient D, which is related to the size of the particles into the solution, in particular to the hydrodynamic radius RI of a ball moving in a solvent having a viscosity η, according to the Stokes-Einstein equation: D = (kT)/(6πηRi) [formula] where k is the Boltzmann constant and T is the temperature.
The measurements of the dynamic light scattering allowed to evaluate the capacity of different solvents, used to disperse the two resins, to generate sub-micrometric aggregates: K16 and a maleic resin. This dispersion capacity is linked to the solvent capacity of individual substances. The lower is the size of aggregates, the better is the solvent power for the solute concerned. In the case of the present invention, the solvent consists of the compounds of general formula (I) and solutes are modified PHENOLIC RESINS and MALEIC RESINS. In this case, the smaller is the hydrodynamic radius, better is the solvation degree of the resin by the solvent, which is therefore better than solvents giving a lower solvation degree, and therefore a larger hydrodynamic radius relative to the same resins. The hydrodynamic radii found by DLS for the solvents used by us are the lowest compared to the other commercially available solventsstudied. The high solvent power, therefore confirmed by the hydrodynamic radius, has a huge impact on the paint final properties and on the production mode. The final properties are affected by the fact that the higher solvent power of our compounds allows to dissolve the rosin and maleic resins up to 70% by weight, and therefore allow to produce paints having a high degree of gloss and very high surface resistance, since these latter properties depend on the amount of resin that a solvent can dissolve to form a paint. In addition, the production mode of the paint was performed at 80°C instead of 200°C because our compounds are more solvent with respect to the commercially available ones and need a lower operating temperature in order to dissolve completely and appropriately the resins concerned.
Actually, in samples having a good resin dispersion, which are clear, particles with sub-micrometric size (2-300 nm) are obtained; sizes are associated with the presence of more or less large aggregates. In the extreme cases of precipitation phenomena (> 1000 nm), the sample appears cloudy, and this is associated with a very poor resin dispersion.
In our case, from the data shown in Tables 1 and 2 of Example 3 it can be clearly seen that […] for the solvents of the invention, and therefore the size of the aggregates, is considerably lower than in solvents commercially available at present for dispersing modified phenolic resins and maleic resins. […] A 5% w/w modified synthetic phenolic resin was used for the mixtures to be tested by DLS obtained industrially by esterification of rosin with pentaerythritol, and subsequent polymerization with phenol, trade name SIRIUS XVI, supplied by YSER. The Maleic Resin used is Perseus I supplied by Yser. Table 3. ROSIN MODIFIED ESTER RESIN

[2] = Dissolution time of resin in solvent until the solution is clear (base for coating materials); type: physicochemical; conditions: magnetic stirring, time when solution becomes clear and no deposit is found
Protocol: Three commercial solvents (D100, mineral oil; 7129, 2-ethylhexyl palmitate; PARYOL TMC 810T, caprylic/capric triglyceride) and the solvents described in examples 1-4 were used. The resins of Example 1 and the chosen solvent were placed on a heating plate under magnetic stirring at 80 °C for one hour, and then allowed to cool to ambient temperature for 24 hrs. Table 1. ROSIN MODIFIED ESTER RESIN BASED PAINTS

[3] = 5% w/w Perseus I resin in the solvent
[4] = 5% w/w SIRIUS XVI resin in the solvent

Row | Compound | Hydrodynamic radius (nm) [1, 3] [nm] | Polydispersity index [1, 3] | Hydrodynamic radius (nm) [1, 4] [nm] | Polydispersity index [1, 4] | 45% resin (dissolution time at 80 °C, min) ([2]; maleic resin) [min] | 45% resin (dissolution time at 80 °C, min) ([2]; rosin modified ester resin) [min] | 55% resin (dissolution time at 80 °C, min) ([2]; maleic resin) | 55% resin (dissolution time at 80 °C, min) ([2]; rosin modified ester resin) | aggregate sizes ([1]; maleic resin dispersed in the solvent) | aggregate sizes ([1]; modified phenolic resin dispersed in the solvent)
1 | CCCCCCCCCCCC(=O)OCC(CC)CCCC (stereo not shown) [LAOEtEs, 2-ethyl-hexyl laurate] | – | – | – | – | >60 | >60 | A clear solution is not obtained after 2 hrs | A clear solution is not obtained after 2 hrs | – | –
2 | CCCCCC(=O)OC(C)C [CAOiPr, isopropyl caproate] | – | – | – | – | >60 | >60 | A clear solution is not obtained after 4 hrs | A clear solution is not obtained after 2 hrs | – | –
3 | CCCCCC(=O)OCC(CC)CCCC (stereo not shown) [CAOEtEs, 2-ethyl-hexyl caproate] | – | – | – | – | – | >60 | – | A clear solution is not obtained after 2 hrs | – | –
4 | CCCCCCCCCCCC(=O)OCCCC [LAOBu, butyl laurate] | – | – | – | – | >60 | >60 | A clear solution is not obtained after 2 hrs | A clear solution is not obtained after 2 hrs | – | –
5 | CCCCCCCCOC(=O)CCCCC [CAOOt, octyl caproate] | – | – | – | – | >60 | >60 | A clear solution is not obtained after 4 hrs | A clear solution is not obtained after 2 hrs | – | –
6 | CCCCCCCCCCCC(=O)OCCCCCC [LAOEs, hexyl laurate] | – | – | – | – | >60 | >60 | A clear solution is not obtained after 2 hrs | A clear solution is not obtained after 2 hrs | – | –
7 | CCCCCCOC(=O)CCCCC [CAOEs, hexyl caproate] | – | – | – | – | >60 | >60 | A clear solution is not obtained after 4 hrs | A clear solution is not obtained after 2 hrs | – | –
8 | CCCCCC(=O)OCCCC [CAOBu, butyl caproate] | – | – | – | – | >60 | >60 | A clear solution is not obtained after 4 hrs | A clear solution is not obtained after 2 hrs | – | –

Second part, led by results:

Row | Hydrodynamic radius (nm) [1, 3] [nm] | Polydispersity index [1, 3] | Hydrodynamic radius (nm) [1, 4] [nm] | Polydispersity index [1, 4] | 45% resin (dissolution time at 80 °C, min) ([2]; maleic resin) [min] | 45% resin (dissolution time at 80 °C, min) ([2]; rosin modified ester resin) [min] | Compound | 55% resin (dissolution time at 80 °C, min) ([2]; maleic resin) | 55% resin (dissolution time at 80 °C, min) ([2]; rosin modified ester resin) | aggregate sizes ([1]; maleic resin dispersed in the solvent) | aggregate sizes ([1]; modified phenolic resin dispersed in the solvent)
9 | 1.7±0.6 | 0.90±0.42 | 8.9 ± 0.9 | 0.76±0.11 | 10 | 15 | CCCCCCCCC(=O)OC [PAOMe, methylpelargonate] | 15 min | 16 min | – | –
10 | – | – | – | – | – | >60 | CCCCCCCCCCCCCCCC(=O)OCC(CC)CCCC (stereo not shown) [Solvent 7129, 2-ethylhexyl palmitate] | – | A clear solution is not obtained after 2 hrs | exceeding the limit of detectability by DLS | exceeding the limit of detectability by DLS
11 | 2.34 ± 0.8 | 0.70±0.06 | 12.9 ± 0.4 | 0.71±0.06 | 15 | 13 | CCCCCCCCC(=O)OCCCC [PAOBu, butylpelargonate] | 20 min | 14 min | – | –
12 | – | – | – | – | >60 | >60 | CCCCCCCCCCCC(=O)OC(C)C [LAOiPr, isopropyl laurate] | A clear solution is not obtained after 2 hrs | A clear solution is not obtained after 2 hrs | – | –
13 | – | – | – | – | >60 | >60 | CCCCCCCCCCCC(=O)OCCCCCCCC [LAOOt, octyl laurate] | A clear solution is not obtained after 2 hrs | A clear solution is not obtained after 2 hrs | – | –
14 | 2.74±0.11 | 1.0±0.3 | 9.2 ± 1.3 | 0.64±0.14 | 10 | 13 | CCCCCCCCC(=O)OC(C)C [PAOiPr, isopropyl pelargonate] | 15 min | 15 min | – | –
15 | – | – | – | – | 60 | 50 | CCCCCCCCC(=O)OCC(CC)CCCC (stereo not shown) [PAOEtEs, 2-ethyl-hexyl pelargonate] | Clear solution | Clear solution | – | –
